Measured values reported in patent publication US20230272221A1, “REAGENTS FOR LABELING BIOMOLECULES” (Ultima Genomics, Inc., priority 2020, published 2023).

Columns and labels:
[1] = enzyme-independent bead assay for evaluating quenching with linker arm oligonucleotides; type: physicochemical; settings: APC (red) channel, FIG. 14
Text: The dye-labeled nucleotides provided herein may improve quenching between nucleobases and the dyes to which they are attached and/or between dyes in a nucleic acid molecule (e.g., a growing nucleic acid strand), such as in a homopolymeric region of a nucleic acid molecule. Quenching may be evaluated in an enzyme-independent manner.
Synthetic oligos are constructed with one or two “linker arm nucleotides”. Linker arm nucleotides are thymidine analogs with a linker arm containing a primary amine. The oligonucleotide containing the linker arm nucleotide can be labeled with linkers and dyes and HPLC purified. The advantage of using the bead-labeled assay is that exact quantitation of the reagents is not necessary; a large excess can be used in each step and the beads washed, ensuring that only stoichiometric amounts of oligonucleotides are bound to the template. Each dye-linker is put on both oligonucleotides. The beads are measured on the flow cytometer in the APC (red) channel. The percent quenching is determined by the formula: % quenching=100×(1−Flbis/(2*Flmono)).
FIGS. 14 and 15 show quenching results for red dye linkers (FIG. 14) and green dye linkers (FIG. 15). […] The hyp10 or hyp20 linkers improve quenching.

[2] = relative fluorescence of dyes coupled directly to oligos, double-stranded DNA bound to beads, flow cytometer; type: physicochemical; settings: FIG. 26
Description: Fluorescence was measured with double-stranded DNA bound to beads using a flow cytometer. […] Accordingly, green dyes may have an inherent advantage over red dyes. This difference may owe at least in part to Atto633 being hydrophobic while Atto532 is comparatively hydrophilic.

Row | quenching, red dye linkers [1] | brightness of two dyes relative to a single dye coupled to an oligo [2] | SMILES
1 | hyp10 improves quenching | 0.4 × | CC[N+]1=c2cc3c(cc2CCC1)=C(c1ccccc1C(=O)N(C)CCCC(=O)O)c1ccc(N(C)C)cc1C3(C)C [Atto633]
2 | quenching may not be improved |  | CCN1/C(=C/C=C/C=C/C2=[N+](CCCCCC(=O)O)c3ccc(S(=O)(=O)O)cc3C2(C)C)C(C)(C)c2cc(S(=O)(=O)[O-])ccc21 [Cy5]
